Assay results published in ChEMBL document CHEMBL2021794, “Synthesis, σ₁, σ₂-receptors binding affinity and antiproliferative action of new C1-substituted adamantanes” (Bioorg Med Chem, 2012).
Active and inactive are the calls of the source. The rule behind the calls is not given here.

How the values were obtained:
PC-3 [1] = experiment: Cell cycle arrest in human PC3 cells assessed as accumulation at G2 phase at 15 uM after 24 hrs by propidium iodide staining based flow cytometry (reference value: 13%); format: functional
BXPC-3 [2] = experiment: Cell cycle arrest in human BxPC3 cells assessed as accumulation at >G2 phase at 50 uM after 24 hrs by propidium iodide staining based flow cytometry (reference value: 6%); format: functional
BXPC-3 [3] = experiment: Induction of apoptosis in human BxPC3 cells assessed as late apoptotic cells at 50 uM after 24 hrs by Annexin V/7-AAD staining based flow cytometry (reference value: 9%); format: functional
PC-3 [4] = experiment: Induction of apoptosis in human PC3 cells assessed as late apoptotic cells at 50 uM after 24 hrs by Annexin V/7-AAD staining based flow cytometry (reference value: 2%); format: functional
[5] = target: Sigma non-opioid intracellular receptor 1 (Homo sapiens, UniProt Q99720); experiment: Displacement of [3H](+)pentazocine from sigma-1 receptor expressed in human Jurkat cell membranes after 2 hrs by liquid scintillation spectroscopy
Sequence of Sigma non-opioid intracellular receptor 1 (Q99720 whole entry): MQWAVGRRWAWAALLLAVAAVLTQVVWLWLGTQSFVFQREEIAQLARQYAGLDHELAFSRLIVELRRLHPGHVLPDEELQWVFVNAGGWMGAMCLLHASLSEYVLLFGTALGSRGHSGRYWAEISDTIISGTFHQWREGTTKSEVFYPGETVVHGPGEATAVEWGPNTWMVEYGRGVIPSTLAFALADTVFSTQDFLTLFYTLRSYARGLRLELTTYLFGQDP

BXPC-3 [6] = experiment: Induction of apoptosis in human BxPC3 cells assessed as early apoptotic cells at 0.5 uM after 24 hrs by Annexin V/7-AAD staining based flow cytometry (reference value: 11%); format: functional
MIA PaCa-2 [7] = experiment: Antitumor activity against human MIAPaCa2 cells xenografted in SCID mouse assessed as reduction in tumor volume at 45 mg/kg, ip for 3 consecutive days; format: functional; settings: MIA PaCa-2, ip, route intraperitoneal
PC-3 [8] = experiment: Induction of apoptosis in human PC3 cells assessed as late apoptotic cells at 0.5 uM after 24 hrs by Annexin V/7-AAD staining based flow cytometry (reference value: 2%); format: functional
PC-3 [9] = experiment: Cell cycle arrest in human PC3 cells assessed as accumulation at < G1 phase at 5 uM after 24 hrs by propidium iodide staining based flow cytometry (reference value: 4%); format: functional
BXPC-3 [10] = experiment: Induction of apoptosis in human BxPC3 cells assessed as cleaved caspase-3 containing cells at 5 uM after 24 hrs by FACS analysis (reference value: 10%); format: functional
IGROV-1 [11] = experiment: Cell cycle arrest in human IGROV1 cells assessed as accumulation at >G2 phase at 15 uM after 24 hrs by propidium iodide staining based flow cytometry (reference value: 21%); format: functional
IGROV-1 [12] = experiment: Cell cycle arrest in human IGROV1 cells assessed as accumulation at G2 phase at 15 uM after 24 hrs by propidium iodide staining based flow cytometry (reference value: 19%); format: functional
BXPC-3 [13] = experiment: Cell cycle arrest in human BxPC3 cells assessed as accumulation at S phase at 50 uM after 24 hrs by propidium iodide staining based flow cytometry (reference value: 33%); format: functional
IGROV-1 [14] = experiment: Induction of apoptosis in human IGROV1 cells assessed as early apoptotic cells at 5 uM after 24 hrs by Annexin V/7-AAD staining based flow cytometry (reference value: 9%); format: functional
BXPC-3 [15] = experiment: Induction of apoptosis in human BxPC3 cells assessed as early apoptotic cells at 15 uM after 24 hrs by Annexin V/7-AAD staining based flow cytometry (reference value: 11%); format: functional
HCT-116 = experiment: Cytotoxicity against human HCT116 cells after 48 hrs by trypan blue assay; format: functional, cell-based
Mus musculus = experiment: Toxicity in CD1 mouse assessed as weight loss at 40 mg/kg, ip after 3 to 4 weeks chronic treatment; format: organism-based; design: dose 40 mg/kg, route intraperitoneal; settings: in vivo
SF-268 = experiment: Cytotoxicity against human SF268 cells after 48 hrs by trypan blue assay; format: functional, cell-based
OVCAR-5 = experiment: Growth inhibition of human OVCAR5 cells after 48 hrs by SRB assay; format: functional; settings: OVCAR-5, 48 h
NCI-H69 = experiment: Growth inhibition of human NCI-H69 cells after 48 hrs by SRB assay; format: functional; settings: NCI-H69, 48 h
PC-3 [16] = experiment: Cell cycle arrest in human PC3 cells assessed as accumulation at S phase at 15 uM after 24 hrs by propidium iodide staining based flow cytometry (reference value: 42%); format: functional
PC-3 [17] = experiment: Cytotoxicity against human PC3 cells after 48 hrs by trypan blue assay; format: functional, cell-based
BXPC-3 [18] = experiment: Growth inhibition of human BxPC3 cells after 48 hrs by SRB assay; format: functional; settings: BXPC-3, 48 h
HL-60(TB) = experiment: Growth inhibition of human HL-60(TB) cells after 48 hrs by SRB assay; format: functional; settings: HL-60, 48 h
IGROV-1 [19] = experiment: Cell cycle arrest in human IGROV1 cells assessed as accumulation at S phase at 5 uM after 24 hrs by propidium iodide staining based flow cytometry (reference value: 29%); format: functional
MIA PaCa-2 [20] = experiment: Antitumor activity against human MIAPaCa2 cells xenografted in SCID mouse assessed as tumor weight at 70 mg/kg, ip for 3 consecutive days (reference value: 1225 +/- 308 mg); format: functional; settings: route intraperitoneal
BXPC-3 [21] = experiment: Induction of apoptosis in human BxPC3 cells assessed as total apoptotic death cells at 15 uM after 24 hrs by Annexin V/7-AAD staining based flow cytometry (reference value: 20%); format: functional
PC-3 [22] = experiment: Cell cycle arrest in human PC3 cells assessed as accumulation at >G2 phase at 15 uM after 24 hrs by propidium iodide staining based flow cytometry (reference value: 6%); format: functional
BXPC-3 [23] = experiment: Cell cycle arrest in human BxPC3 cells assessed as accumulation at S phase at 0.5 uM after 24 hrs by propidium iodide staining based flow cytometry (reference value: 33%); format: functional
BXPC-3 [24] = experiment: Cell cycle arrest in human BxPC3 cells assessed as accumulation at G2 phase at 50 uM after 24 hrs by propidium iodide staining based flow cytometry (reference value: 12%); format: functional
PC-3 [25] = experiment: Cell cycle arrest in human PC3 cells assessed as accumulation at G2 phase at 50 uM after 24 hrs by propidium iodide staining based flow cytometry (reference value: 13%); format: functional
PC-3 [26] = experiment: Induction of apoptosis in human PC3 cells assessed as early apoptotic cells at 15 uM after 24 hrs by Annexin V/7-AAD staining based flow cytometry (reference value: 5%); format: functional
PC-3 [27] = experiment: Cell cycle arrest in human PC3 cells assessed as accumulation at S phase at 5 uM after 24 hrs by propidium iodide staining based flow cytometry (reference value: 42%); format: functional
IGROV-1 [28] = experiment: Induction of apoptosis in human IGROV1 cells assessed as total apoptotic death cells at 15 uM after 24 hrs by Annexin V/7-AAD staining based flow cytometry (reference value: 13%); format: functional
IGROV-1 [29] = experiment: Induction of apoptosis in human IGROV1 cells assessed as healthy cells at 50 uM after 24 hrs by Annexin V/7-AAD staining based flow cytometry (reference value: 86%); format: functional
BXPC-3 [30] = experiment: Cell cycle arrest in human BxPC3 cells assessed as accumulation at G2 phase at 5 uM after 24 hrs by propidium iodide staining based flow cytometry (reference value: 12%); format: functional
IGROV-1 [31] = experiment: Induction of apoptosis in human IGROV1 cells assessed as late apoptotic cells at 15 uM after 24 hrs by Annexin V/7-AAD staining based flow cytometry (reference value: 4%); format: functional
[32] = read-out: LC50 (the source's name)

`CN1CCN(c2ccc(C(c3ccccc3)C34CC5CC(CC(C5)C3)C4)cc2)CC1` (centres undefined) showed an Activity (PC-3 [1]) of 9%, an Activity (BXPC-3 [2]) of 5% and an Activity (BXPC-3 [3]) of 33%. The Activity (PC-3 [4]) was 9%, the IC50 [5] was 0.0032 µM and the Activity (BXPC-3 [6]) was 10%. For the same molecule, the inhibition in vivo at 45 mg/kg (MIA PaCa-2 [7]) was 47.5%, the Activity (PC-3 [8]) was 1% and the Activity (PC-3 [9]) was 9%. The Activity (BXPC-3 [10]) was 5%, the Activity (IGROV-1 [11]) was 20% and the Activity (IGROV-1 [12]) was 21%. For the same molecule, the Activity (BXPC-3 [13]) was 24%, the Activity (IGROV-1 [14]) was 8% and the Activity (BXPC-3 [15]) was 12%. For the same molecule, the Activity (HCT-116) was “Active”, the Activity (Mus musculus) was “Non-toxic” and the Activity (SF-268) was “Active”. The GI50 (OVCAR-5) was 8 µM, the TGI (OVCAR-5) was 41.9 µM and the CC50 (OVCAR-5; [32]) was 94.5 µM. For the same molecule, the GI50 (NCI-H69) was 7.09 µM, the CC50 (NCI-H69; [32]) was 100 µM and the Activity (PC-3 [16]) was 33%. The Activity (PC-3 [17]) was “Active”, the GI50 (BXPC-3 [18]) was 3.84 µM and the LC50 (BXPC-3 [18]) was 16.6 µM. The TGI (BXPC-3 [18]) was 6.96 µM, the GI50 (HL-60(TB)) was 5.04 µM and the LC50 (HL-60(TB)) was 78.5 µM. For the same molecule, the TGI (HL-60(TB)) was 9.63 µM, the Activity (IGROV-1 [19]) was 29% and the Activity (MIA PaCa-2 [20]) was 642 mg. The Activity (BXPC-3 [21]) was 28%, the Activity (PC-3 [22]) was 5% and the Activity (BXPC-3 [23]) was 34%. For the same molecule, the Activity (BXPC-3 [24]) was 13%, the Activity (PC-3 [25]) was 10% and the Activity (PC-3 [26]) was 6%. For the same molecule, the Activity (PC-3 [27]) was 42%, the Activity (IGROV-1 [28]) was 33% and the Activity (IGROV-1 [29]) was 31%. The Activity (BXPC-3 [30]) was 12% and the Activity (IGROV-1 [31]) was 15%.
